Assay results reported in patent US20100041672A1, “USE OF QUINOLINE DERIVATIVES IN THE TREATMENT OF PAIN AND IRRITABLE BOWEL SYNDROME” (GLAXO GROUP LIMITED, priority 2007, published 2010).

How the values were obtained:
[1] = test system: rats; assay: FCA induced hypersensitivity rat model (intraplantar FCA, weight bearing); format: in vivo; conditions: 1 hour post dose; for weight bearing % reversal: 24 hrs after FCA; for effect on FCA induced hypersensitivity: p.o., intraplantar FCA
Procedure: (§1) Naïve weight bearing readings were taken. The hypersensitivity to pain was measured using the Rat incapacitance tester (Linton instruments). All rats (180-220 g) received an intraplantar injection of 100 ul of FCA (Freund's complete adjuvant) into the left hind paw. The FCA was sonicated for 15 minutes prior to use. 24 hrs after administration of the FCA, pre-dose weight bearing readings were taken. All animals were then ranked and randomised for dosing according to their FCA window (predose difference in grams—naïve difference in grams). Rats with FCA window less than 30 were excluded from the study.
Animals were then dosed orally with either vehicle, SB42457 (0.01, 0.1, 1 and 10 mg/kg p.o.) or celecoxib (10 mg/kg p.o.) as appropriate according to ranking and randomisation. Animals were assessed in the weight bearing apparatus 1 hour post dose.
The study was blind and randomised by FCA window using the Latin square method. % reversals were calculated by using the naïve, pre-dose and post dose values as follows: % Reversal=[(Pre-dose−Post-dose)/(Pre-dose−Naïve)]×100.
Graphs were plotted using Prism3. Statistical analysis was carried out using ANOVA and Fischer LSD test from statistical package Statistica 6.
In this study a positive control was also tested (celecoxib).
as §1, with “(200-220” for “(180-220”
Animals were then dosed orally with vehicle, SB-792988-A (0.01, 0.1, 1 and 10 mg/kg p.o.), SB-399885-A (10 mg/kg p.o.) or celecoxib (10 mg/kg p.o.) as appropriate according to ranking and randomisation. Animals were assessed in the weight bearing apparatus 1 hour post dose.
Graphs and were plotted using Prism3. Statistical analysis was carried out using ANOVA and Fischer LSD test from statistical package Statistica 6.

[2] = test system: male Sprague Dawley rats; assay: rat intra rectal mustard oil model of visceral pain; format: in vivo; conditions: for reduction in behaviours compared to vehicle treated animals: behaviours counted 25 minutes; for statistical significance of reduction in behaviours vs vehicle: orally 60 minutes prior to mustard oil, all doses examined
Procedure: All behavioural responses consistent with the presence of pain were determined following intra rectal injection of mustard oil in male Sprague Dawley rats. Typical behavioural responses consistent with the presence of pain following intra-colonic mustard oil injection include: arching, abdominal lifting, abdominal tensing, stretching, extending the rear leg (when lying down), raising and lowering the testicles, tip-toeing and writhing.
Male Sprague Dawley rats (130 g-160 g) were briefly sedated with 50% oxygen/50% carbon dioxide and 0.2 ml of 3% mustard oil injected into the colorectum, 1.5 cm from the anus. The anus was plugged with vaseline and animals placed in observational cages to which they had previously been acclimatised for 45 minutes prior to mustard oil injection. The number of visceral pain related behaviours, which consisted primarily of abdominal arching, were counted over a 25 minute period and the animals culled by cervical dislocation.
In separate studies, the effects of alosetron (0.1, 0.3 and 1.0 mg/kg n=10 per group), gabapentin (10, 30 and 100 mg/kg n=10 per group) and amitriptyline (3, 10 and 30 mg/kg n=9-10 per group) or vehicle (saline for alosetron and amitriptyline 10% 1-Methyl-2-pyrolidone in saline for gabapentin n=10 per study) given sub cutaneously 15 minutes prior to injection of 3% mustard oil were examined on pain behaviour. Results in FIGS. 4, 5 and 6 are expressed as mean±sem percentage of behaviours compared to vehicle treated animals and were statistically compared to vehicle treated animals using a one way ANOVA with Dunnett's comparison, p<0.05 considered significant.
The effect of SB742457 (0.03, 0.1, 1.0, 3.0 and 10 mg/kg, n=10 per group for the 0.03, 0.1 and 10 mg/kg groups, and n=20 for the 1.0 and 3.0 mg/kg groups) or vehicle (saline n=20) given orally 60 minutes prior to injection of mustard oil (3% mustard oil, 70% ethanol in saline) were examined on pain behaviour. The total number of visceral pain related behaviours, which consisted primarily of abdominal arching, were counted over a 25 minute period and the animals culled by cervical dislocation. Behaviours were normalised as the percentage of the vehicle group mean and expressed as mean+/−sem. Data was combined from two studies and normalised as the percentage of the vehicle group mean for each individual study and expressed as mean+/−sem for both studies. Percentage of behaviours compared to vehicle treated animals were analysed statistically using a one way ANOVA with Dunnett's comparison, p<0.05 considered significant, FIG. 10.
The effect of SB792988A (0.03, 0.1, 0.3, 1.0, 3.0 and 10 mg/kg, n=9 for 1.0 mg/kg, n=10 per group for the 0.03, 0.1 and 3.0 mg/kg groups, n=20 per group for the 0.3 and 10 mg/kg groups) or vehicle (saline n=20) given orally 60 minutes prior to injection of mustard oil (3% mustard oil, 70% ethanol in saline) were examined on pain behaviour. The total number of visceral pain related behaviours, which consisted primarily of abdominal arching, were counted over a 25 minute period and the animals culled by cervical dislocation. Behaviours were normalised as the percentage of the vehicle group mean and expressed as mean+/−sem. Data was combined from two studies and normalised as the percentage of the vehicle group mean for each individual study and expressed as mean+/−sem for both studies. Percentage of behaviours compared to vehicle treated animals were analysed statistically using a one way ANOVA with Dunnett's comparison, p<0.05 considered significant, FIG. 11.

[3] = 0.03 mg/kg orally 60 minutes prior to mustard oil
[4] = 0.1 mg/kg orally 60 minutes prior to mustard oil
[5] = 1.0 mg/kg orally 60 minutes prior to mustard oil
[6] = 3.0 mg/kg orally 60 minutes prior to mustard oil
[7] = 10 mg/kg orally 60 minutes prior to mustard oil

Structure (SMILES) | weight bearing % reversal ([1]; 0.01 mg/kg p.o., Table 7) [%] | weight bearing % reversal ([1]; 0.1 mg/kg p.o., Table 7) [%] | weight bearing % reversal ([1]; 1 mg/kg p.o., Table 7) [%] | weight bearing % reversal ([1]; 10 mg/kg p.o., Table 7) [%] | effect on FCA induced hypersensitivity [1] | reduction in behaviours compared to vehicle treated animals [2, 3] [%] | reduction in behaviours compared to vehicle treated animals [2, 4] [%] | reduction in behaviours compared to vehicle treated animals ([2]; 0.3 mg/kg orally 60 minutes prior to mustard oil) [%] | reduction in behaviours compared to vehicle treated animals [2, 5] [%] | reduction in behaviours compared to vehicle treated animals [2, 6] [%] | reduction in behaviours compared to vehicle treated animals [2, 7] [%] | statistical significance of reduction in behaviours vs vehicle [2] | weight bearing % reversal ([1]; 0.01 mg/kg p.o., Table 5) [%] | weight bearing % reversal ([1]; 0.1 mg/kg p.o., Table 5) [%] | weight bearing % reversal ([1]; 1 mg/kg p.o., Table 5) [%] | weight bearing % reversal ([1]; 10 mg/kg p.o., Table 5) [%]
Cl.O=S(=O)(c1cccc(F)c1)c1cnc2c(N3CCNCC3)cccc2c1 [SB792988A, 3-[(3-Fluorophenyl)sulfonyl]-8-(1-piperazinyl)quinoline Hydrochloride] | 22.91 ± 4.13 | 22.11 ± 5.18 | 38.76 ± 5.88 | 67.00 ± 5.08 | dose-dependent reversal | 38 | 40 | 42 | 55 | 65 | 74 | statistically significant from vehicle treated animals at all doses examined |  |  |  | 
O=S(=O)(c1ccccc1)c1cnc2c(N3CCNCC3)cccc2c1 [SB742457, 3-Phenylsulfonyl-8-piperazin-1-yl-quinoline] |  |  |  |  | dose-dependent reversal | 56 | 56 |  | 44 | 50 | 62 | statistically significant from vehicle treated animals at all doses examined | 27.68 ± 6.39 | 53.09 ± 5.68 | 60.17 ± 6.73 | 76.97 ± 7.17
